Source: PubChem BioAssay AID256 (DTP/NCI, 2004)
Where “and” joins values, the source holds several entries; their conditions need not be identical. Identical values can stand only once. Inconclusive results and toxic doses are left out. How the source made its calls: active means survival T/C of 150% or more; inactive means T/C below 125% in these data.

System: CD2F1 mice, L1210 leukemia ip, survival T/C
Assay: NCI In Vivo Anticancer Drug Screen. Data for tumor model L1210 Leukemia (intraperitoneal) in CD2F1 (CDF1) mice
Conditions: higher = longer survival
How it was run: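 Transplantable tumor in mice; compound-treated vs vehicle-treated groups. Read-out = treated/control ratio of the measured endpoint.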

[1] = endpoint: mean survival time, dose: 100.0 mg/kg/injection, schedule: Q01DX001 (ip), vehicle: saline with Tween-80
[2] = endpoint: mean survival time, dose: 200.0 mg/kg/injection, schedule: Q01DX001 (ip), vehicle: saline with Tween-80
[3] = endpoint: mean survival time, dose: 400.0 mg/kg/injection, schedule: Q01DX001 (ip), vehicle: saline with Tween-80
[4] = endpoint: mean survival time, dose: 100.0 mg/kg/injection, schedule: Q04DX003 (ip), vehicle: saline
[5] = endpoint: mean survival time, dose: 200.0 mg/kg/injection, schedule: Q04DX003 (ip), vehicle: saline
[6] = endpoint: mean survival time, dose: 100.0 mg/kg/injection, schedule: Q01DX009 (ip), vehicle: saline
[7] = endpoint: mean survival time, dose: 200.0 mg/kg/injection, schedule: Q01DX009 (ip), vehicle: saline
[8] = endpoint: mean survival time, dose: 100.0 mg/kg/injection, schedule: Q01DX009 (ip), vehicle: saline with Tween-80
[9] = endpoint: mean survival time, dose: 100.0 mg/kg/injection, schedule: Q04DX003 (ip), vehicle: saline with Tween-80
[10] = endpoint: mean survival time, dose: 200.0 mg/kg/injection, schedule: Q01DX009 (ip), vehicle: saline with Tween-80
[11] = endpoint: mean survival time, dose: 200.0 mg/kg/injection, schedule: Q04DX003 (ip), vehicle: saline with Tween-80
[12] = endpoint: mean survival time, dose: 400.0 mg/kg/injection, schedule: Q01DX009 (ip), vehicle: saline with Tween-80
[13] = endpoint: mean survival time, dose: 400.0 mg/kg/injection, schedule: Q04DX003 (ip), vehicle: saline with Tween-80
[14] = endpoint: mean survival time, dose: 25.0 mg/kg/injection, schedule: Q04DX003 (ip), vehicle: Klucel (hydroxypropylcellulose) (HPC)
[15] = endpoint: mean survival time, dose: 50.0 mg/kg/injection, schedule: Q04DX003 (ip), vehicle: Klucel (hydroxypropylcellulose) (HPC)
[16] = endpoint: mean survival time, dose: 100.0 mg/kg/injection, schedule: Q04DX003 (ip), vehicle: Klucel (hydroxypropylcellulose) (HPC)

Measured: T/C

CSc1nc(SC)c2cnn(C3OC(CO)C(O)C3O)c2n1 (centres undefined)
inactive: endpoint: median survival time, dose: 3.12 mg/kg/injection, schedule: Q01DX005 (ip), vehicle: saline with Tween-80 95 % of control | endpoint: median survival time, dose: 6.25 mg/kg/injection, schedule: Q01DX005 (ip), vehicle: saline with Tween-80 100 % of control | endpoint: median survival time, dose: 12.5 mg/kg/injection, schedule: Q01DX005 (ip), vehicle: saline with Tween-80 102 % of control and 103 % of control | endpoint: median survival time, dose: 25.0 mg/kg/injection, schedule: Q01DX005 (ip), vehicle: saline with Tween-80 102 % of control and 101 % of control and 97 % of control | endpoint: median survival time, dose: 50.0 mg/kg/injection, schedule: Q01DX005 (ip), vehicle: saline with Tween-80 102 % of control and 101 % of control and 97 % of control | endpoint: median survival time, dose: 100.0 mg/kg/injection, schedule: Q01DX005 (ip), vehicle: saline with Tween-80 102 % of control and 95 % of control | endpoint: median survival time, dose: 200.0 mg/kg/injection, schedule: Q01DX005 (ip), vehicle: saline with Tween-80 93 % of control and 95 % of control

CC1(C)COC(c2ccccc2Br)=N1
inactive: [1] 109 % of control | [2] 101 % of control | [3] 101 % of control

CN(/N=C/c1ccccc1)C(=S)Nc1ccccc1
inactive: endpoint: mean survival time, dose: 31.25 mg/kg/injection, schedule: Q04DX003 (ip), vehicle: Klucel (hydroxypropylcellulose) (HPC) 101 % of control | endpoint: mean survival time, dose: 62.5 mg/kg/injection, schedule: Q04DX003 (ip), vehicle: Klucel (hydroxypropylcellulose) (HPC) 103 % of control | endpoint: mean survival time, dose: 125.0 mg/kg/injection, schedule: Q04DX003 (ip), vehicle: Klucel (hydroxypropylcellulose) (HPC) 100 % of control

CC(=O)c1ccc[n+](C)c1
inactive: [4] 104 % of control | [5] 104 % of control

Nc1nc(NC2OC(CO)C(O)C2O)c2nnsc2n1 (centres undefined)
inactive: endpoint: mean survival time, dose: 75.0 mg/kg/injection, schedule: Q01DX001 (ip), vehicle: saline 96 % of control | endpoint: mean survival time, dose: 150.0 mg/kg/injection, schedule: Q01DX001 (ip), vehicle: saline 100 % of control | endpoint: mean survival time, dose: 300.0 mg/kg/injection, schedule: Q01DX001 (ip), vehicle: saline 88 % of control

O/N=C(/CN1CCOCC1)c1ccc(Cl)cc1
inactive: endpoint: mean survival time, dose: 50.0 mg/kg/injection, schedule: Q01DX009 (ip), vehicle: saline 100 % of control | [6] 97 % of control | [7] 103 % of control

CCC/C=N\O
inactive: [4] 110 % of control | [5] 93 % of control | endpoint: mean survival time, dose: 400.0 mg/kg/injection, schedule: Q04DX003 (ip), vehicle: saline 100 % of control

CCC(=O)c1cccc([N+](=O)[O-])c1
inactive: [1] 100 % of control | [8] 96 % of control | [9] 102 % of control | [2] 104 % of control | [10] 97 % of control | [11] 102 % of control | [3] 93 % of control | [12] 97 % of control | [13] 98 % of control

CNS(=O)(=O)Cc1ccccc1
inactive: [9] 91 % of control | [11] 97 % of control | [13] 94 % of control

O=[N+]([O-])c1ccc(N=Cc2ccc3c(c2)OCO3)c(Br)c1
inactive: endpoint: mean survival time, dose: 100.0 mg/kg/injection, schedule: Q01DX009 (ip), vehicle: Klucel (hydroxypropylcellulose) (HPC) 108 % of control | endpoint: mean survival time, dose: 100.0 mg/kg/injection, schedule: Q04DX003 (ip), vehicle: other 108 % of control | endpoint: mean survival time, dose: 200.0 mg/kg/injection, schedule: Q01DX009 (ip), vehicle: Klucel (hydroxypropylcellulose) (HPC) 109 % of control | endpoint: mean survival time, dose: 200.0 mg/kg/injection, schedule: Q04DX003 (ip), vehicle: other 103 % of control | endpoint: mean survival time, dose: 400.0 mg/kg/injection, schedule: Q01DX009 (ip), vehicle: Klucel (hydroxypropylcellulose) (HPC) 109 % of control | endpoint: mean survival time, dose: 400.0 mg/kg/injection, schedule: Q04DX003 (ip), vehicle: other 103 % of control

CCOC(=O)/C(C#N)=C\c1cccs1
inactive: [14] 96 % of control | [15] 96 % of control | [16] 107 % of control

CC(C)([NH-])C[NH-].O=C(O)CC(=O)O.[Pt+2]
inactive: endpoint: median survival time, dose: 20.0 mg/kg/injection, schedule: Q04DX003 (ip), vehicle: distilled water + Tween-80 104 % of control

CCCCCCC(C(=O)OCC)P(=O)(OCC)OCC (centres undefined)
inactive: endpoint: mean survival time, dose: 18.75 mg/kg/injection, schedule: Q01DX009 (ip), vehicle: saline with Tween-80 98 % of control | endpoint: mean survival time, dose: 37.5 mg/kg/injection, schedule: Q01DX009 (ip), vehicle: saline with Tween-80 96 % of control | endpoint: mean survival time, dose: 75.0 mg/kg/injection, schedule: Q01DX009 (ip), vehicle: saline with Tween-80 96 % of control | endpoint: mean survival time, dose: 75.0 mg/kg/injection, schedule: Q04DX003 (ip), vehicle: saline with Tween-80 95 % of control

O=S(=O)(Nc1ccc(Br)cc1)c1ccc(Cl)c(Cl)c1
inactive: endpoint: mean survival time, dose: 100.0 mg/kg/injection, schedule: Q04DX002 (ip), vehicle: saline with Tween-80 91 % of control | endpoint: mean survival time, dose: 200.0 mg/kg/injection, schedule: Q04DX002 (ip), vehicle: saline with Tween-80 88 % of control | endpoint: mean survival time, dose: 400.0 mg/kg/injection, schedule: Q04DX002 (ip), vehicle: saline with Tween-80 88 % of control

O=C1c2cccc(NCCCNCCO)c2C(=O)c2cccc(NCCCNCCO)c21
inactive: endpoint: median survival time, dose: 6.25 mg/kg/injection, schedule: Q01DX009 (ip), vehicle: acid diluted with saline 105 % of control | endpoint: median survival time, dose: 12.5 mg/kg/injection, schedule: Q01DX009 (ip), vehicle: acid diluted with saline 117 % of control | endpoint: median survival time, dose: 25.0 mg/kg/injection, schedule: Q01DX009 (ip), vehicle: acid diluted with saline 116 % of control | endpoint: median survival time, dose: 50.0 mg/kg/injection, schedule: Q01DX009 (ip), vehicle: acid diluted with saline 88 % of control

CC1C=COC(C)CO1 (centres undefined) (tested in a mixture with another compound)
inactive: [9] 103 % of control | [11] 97 % of control | [13] 95 % of control

O=C(/C(=N/N=C\c1ccc([N+](=O)[O-])cc1)c1ccccc1)c1ccccc1
inactive: [8] 101 % of control | [6] 109 % of control | [10] 95 % of control | [7] 109 % of control | [12] 95 % of control | endpoint: mean survival time, dose: 400.0 mg/kg/injection, schedule: Q01DX009 (ip), vehicle: saline 104 % of control

CC12CCC(=O)C=C1CCC1C2C(=O)CC2(C)C1CCC2(O)C(=O)Cn1cc(F)c(=O)[nH]c1=O (centres undefined)
inactive: endpoint: mean survival time, dose: 12.5 mg/kg/injection, schedule: Q04DX003 (ip), vehicle: Klucel (hydroxypropylcellulose) (HPC) 100 % of control | [14] 103 % of control | [15] 100 % of control | [16] 96 % of control | endpoint: mean survival time, dose: 200.0 mg/kg/injection, schedule: Q04DX003 (ip), vehicle: Klucel (hydroxypropylcellulose) (HPC) 94 % of control

N#CC(=N)N1CCN(C(=N)C#N)CC1
inactive: endpoint: mean survival time, dose: 25.0 mg/kg/injection, schedule: Q04DX002 (ip), vehicle: saline with Tween-80 93 % of control | endpoint: mean survival time, dose: 50.0 mg/kg/injection, schedule: Q04DX002 (ip), vehicle: saline with Tween-80 86 % of control | endpoint: mean survival time, dose: 100.0 mg/kg/injection, schedule: Q01DX001 (ip), vehicle: saline 97 % of control
